Experimental data from patent US12024510B2, “Pyrazolopyridine-diamides, their use as insecticide and processes for preparing the same” (PI INDUSTRIES LTD., priority 2017, dated 2024).

Assays:
Type in all cases: in vivo
Helicoverpa armigera = Helicoverpa armigera diet incorporation method; settings: third instar larvae, dead and moribund combined, 96 h after release
Outline: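 Third-instar larvae, starved, were placed singly on diet pieces containing test dispersion (bead-milled in surfactant, particles under 2 μm, 500 ppm stock then diluted). Trays kept at 25° C. and 70% RH; mortality counted at 96 h, moribund larvae counted with dead.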

Spodoptera litura = Spodoptera litura diet incorporation method; settings: third instar larvae, dead and moribund combined, 96 h after release
Outline: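 Compound milled to <2 μm average particle size in surfactant, dispersed in water (500 ppm stock dispersion), then mixed into semi-synthetic diet at ~50° C. One starved third-instar larva per diet cell, 25° C, 70% RH; percent mortality (dead plus moribund) scored at 96 h.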

Plutella xylostella = assay: whole plant or invertebrate; settings: foliar, cabbage leaf dip, second instar larvae, dead and moribund combined, 72 h after release
Outline: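 Leaf-dip bioassay: second-instar larvae, singly, fed on cabbage leaves dipped 10 s in test dispersion (bead-milled, diluted with 0.01% Triton-X to test concentration) and dried 20 min. Held at 25 °C, 70% RH; % mortality counts dead and moribund at 72 h.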

Measured: mortality at 300 ppm

CNC(=O)c1c(NC(=O)c2cc(OC)nn2-c2ncccc2Cl)c(C)cc2ccnn12 [Compound 25, 6-(1-(3-chloropyridin-2-yl)-3-methoxy-1H-pyrazole-5-carboxamido)-N,5-dimethylpyrazolo[1,5-a]pyridine-7-carboxamide]
> 70%: all assays above

C#CCNC(=O)c1c(NC(=O)c2cc(OC)nn2-c2ncccc2Cl)c(C)cc2ccnn12 [Compound 45, 6-(1-(3-chloropyridin-2-yl)-3-methoxy-1H-pyrazole-5-carboxamido)-5-methyl-N-(prop-2-yn-1-yl)pyrazolo[1,5-a]pyridine-7-carboxamide]
> 70%: all assays above

CNC(=O)c1c(NC(=O)c2cc(Cn3nnc(C(F)(F)F)n3)nn2-c2ncccc2Cl)c(C)cc2ccnn12 [Compound 166, 6-(1-(3-chloropyridin-2-yl)-3-((5-(trifluoromethyl)-2H-tetrazol-2-yl)methyl)-1H-pyrazole-5-carboxamido)-N,5-dimethylpyrazolo[1,5-a]pyridine-7-carboxamide]
> 70%: all assays above

Cc1cc2ccnn2c(C(=O)NCC2CC2)c1NC(=O)c1cc(Br)nn1-c1ncccc1Cl [Compound 3, 6-(3-bromo-1-(3-chloropyridin-2-yl)-1H-pyrazole-5-carboxamido)-N-(cyclopropylmethyl)-5-methylpyrazolo[1,5-a]pyridine-7-carboxamide]
> 70%: all assays above

COc1cc(C(=O)Nc2c(Br)cc3ccnn3c2C(=O)NC(C)(C)C)n(-c2ncccc2Cl)n1 [Compound 119, 5-bromo-N-(tert-butyl)-6-(1-(3-chloropyridin-2-yl)-3-methoxy-1H-pyrazole-5-carboxamido)pyrazolo[1,5-a]pyridine-7-carboxamide]
> 70%: all assays above

COc1cc(C(=O)Nc2c(C)cc3ccnn3c2C(=O)NC(C)C2CC2)n(-c2ncccc2Cl)n1 (stereo not drawn) [Compound 99, 6-(1-(3-chloropyridin-2-yl)-3-methoxy-1H-pyrazole-5-carboxamido)-N-(1-cyclopropylethyl)-5-methylpyrazolo[1,5-a]pyridine-7-carboxamide]
> 70%: all assays above

CONC(=O)c1c(NC(=O)c2cc(C(F)(F)F)nn2-c2ncccc2Cl)c(C)cc2ccnn12 [Compound 93, 6-(1-(3-chloropyridin-2-yl)-3-(trifluoromethyl)-1H-pyrazole-5-carboxamido)-N-methoxy-5-methylpyrazolo[1,5-a]pyridine-7-carboxamide]
> 70%: all assays above

CCNC(=O)c1c(NC(=O)c2cc(Br)nn2-c2ncccc2Cl)c(Br)cc2ccnn12 [Compound 76, 5-bromo-6-(3-bromo-1-(3-chloropyridin-2-yl)-1H-pyrazole-5-carboxamido)-N-ethylpyrazolo[1,5-a]pyridine-7-carboxamide]
> 70%: all assays above

Cc1cc2ccnn2c(C(=O)NCC(F)F)c1NC(=O)c1cc(Br)nn1-c1ncccc1Cl [Compound 186, 6-(3-bromo-1-(3-chloropyridin-2-yl)-1H-pyrazole-5-carboxamido)-N-(2,2-difluoroethyl)-5-methylpyrazolo[1,5-a]pyridine-7-carboxamide]
> 70%: all assays above
